Test results: publication PMC3401608 (Journal of Medicinal Chemistry, 2012)
Like-named read-outs stand apart in the source and are kept apart here.

Key:
[1] = target: human cloned 5-HT6 receptors (Homo sapiens, UniProt P50406); test: 5-HT6R radioligand competition binding assays
postmenopausal women = conditions: 120 mg/day, but not 60 mg/day; cited from earlier work

Chain of human cloned 5-HT6 receptors (P50406 whole entry): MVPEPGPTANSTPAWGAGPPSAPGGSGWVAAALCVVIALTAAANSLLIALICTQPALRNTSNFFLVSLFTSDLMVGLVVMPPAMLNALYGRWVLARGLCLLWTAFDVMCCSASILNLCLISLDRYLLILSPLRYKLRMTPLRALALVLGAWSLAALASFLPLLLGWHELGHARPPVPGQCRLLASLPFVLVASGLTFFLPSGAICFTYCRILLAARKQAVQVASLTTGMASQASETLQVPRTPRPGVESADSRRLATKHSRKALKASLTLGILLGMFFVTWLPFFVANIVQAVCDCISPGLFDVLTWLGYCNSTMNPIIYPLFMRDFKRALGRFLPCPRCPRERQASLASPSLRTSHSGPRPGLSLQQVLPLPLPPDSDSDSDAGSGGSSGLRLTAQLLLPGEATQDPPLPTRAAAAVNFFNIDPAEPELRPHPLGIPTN

Ki [1] [µM] | Ki ([1]; 5-HT6R, Table 6, unit inferred) [µM] | SMILES | Risk of cognitive impairment (postmenopausal women)
> 10 | > 10 | COc1ccccc1N1CCN(CCCCNC(=O)c2ccc3ccccc3c2)CC1 [Compound 9] | –
> 10 | > 10 | CC(NCCC(c1ccccc1)c1ccccc1)c1ccccc1 (stereo not drawn) [Compound 5] | –
– | > 10 | O=c1cc(N2CCOCC2)oc2c(-c3ccccc3)cccc12 [Compound 7] | –
– | – | O=C(c1ccc(OCCN2CCCCC2)cc1)c1c(-c2ccc(O)cc2)sc2cc(O)ccc12 [Compound 10, raloxifene] | reduced risk of cognitive impairment
